What was measured:
keratin 6 = experiment: Keratin-6 production in normal human keratinocytes; type: cell-based; settings: normal human keratinocytes (FIG. 11)
Keratin 1/10 = Keratin 1/10 production in human normal keratinocytes; type: cell-based; settings: concentration not given
Experimental: (§1) Keratinocytes were cultured in commercially available keratinocyte medium M154 (Cascade Biologics/Invitrogen) # M154500 with a final calcium […]. Supplements were added meeting following final concentrations of growth factors; bovine pituitary extract (BPE), 0.2% v/v·bovine insulin, 5 μg/ml·hydrocortisone, 0.18 μg/ml·bovine transferrin, 5 μg/ml·human epidermal growth factor, 0.2 ng/ml.
(§2) Medium was changed every other day. Cells were grown to 80% confluence prior stimulation with compounds. Experiments were performed in 24-well plates. The cells were treated with individual compounds of the invention for 6 days. After 3 days the medium was refreshed. A source of calcium ions was used as a positive control. After 6 days tissue culture medium was stored in −20° C. until analysis.
Cells were cultured as described in Example 5.1. and the methodology described in Example 3.1 was adapted in order analyze keratin 1/10 production.

pro-collagen type 1 = experiment: Pro-collagen 1 ELISA in dermal fibroblasts; type: cell-based, human; settings: 24 hour stimulation, 3 donors (FIG. 5)
Experimental: (§3) MMP-inhibitory activity for compounds of the invention was also assessed on human dermal fibroblasts. Dermal fibroblasts were cultured in Dulbecco's Modified Eagle Medium (DMEM) (Invitrogen) with 10% EBS (ex. Invitrogen) and 1% Pencillin/Streptavidin (ex. Invitrogen). To induce inflammation in the cells, PMA (phorbol myristate acetate) (ex. Sigma) was used at a concentration of 10 nM. […] The cells were stimulated for 24 h and the culture supernatant was collected and stored at −20° C. until further analysis.
Fibroblast cells were cultured as outlined in Example 3.1 and treated with compounds of the invention The secretion of pro-collagen in the cell culture supernatants were analyzed using Pro-Collagen 1 specific ELISA (#8003; ex. Quidel). Results were compared with cell culture supernatants from DMSO vehicle treated cells. The assays utilized a 96-well microplate format and were processed according to the manufacturer's protocol, including generation of a standard curve prepared in background assay diluents. Absorbance of the assay dye was read at a Synergy HT plate reader. Values that fell within the linear range of the calibration assay were accepted. Quantities were determined by comparison to standard curve obtained for pro-collagen 1.

fibronectin = experiment: Fibronectin production in human keratinocytes; type: cell-based; settings: 6 days stimulation, compared to all-trans retinoic acid and retinol
Experimental: as §1, §2
Experimental method as outlined in Example 3.1 was modified in order to analyze fibronectin levels extracted from keratinocytes stimulated for 6 days with all-trans retinoic acid, retinol, arachidonic acid, β-aescin, and […] (ethyl ester) at a range of concentrations. Experiments were performed in duplicates.
Cells were cultured as described in Example 5.1. and the methodology described in Example 3.1 was adapted in order analyze fibronectin production.

Kallikrein 8 = Kallikrein 8 ELISA in human normal keratinocytes; type: cell-based; settings: 4 days stimulation (FIG. 14)
Experimental: as §1
Keratinocytes used for Kallikrein 8 experiments were cultured as described in example 2.1. Experiments were performed in monolayers with 80% confluence. The cells were stimulated for 4 days prior to kallikrein 8 analysis with the different actives and then culture supernatant were collected and stored in −20° C. until further analysis. Kallikrein 8 production was analysed in cell culture supernatants from stimulated keratinocytes using a ELISA assay specific for Kallikrein 8 (Uscn Life Science Inc, E90690Hu). Results were compared with cell culture supernatants from DMSO vehicle treated cells. The assays utilized a 96-well microplate format and were processed according to the manufacturer's protocol, including generation of a standard curve prepared in background assay diluents. Absorbance of the assay dye was read at a Synergy HT plate reader. Values that fell within the linear range of the calibration assay were accepted. Quantities were determined by comparison to standard curves obtained for KLK8.

[1] = cited from earlier work
[2] = tested on: hydroxysteroid (17-beta) dehydrogenase 2 (HSD17B2); experiment: Affymetrix gene array on skin explants, HSD17B2; type: cell-based, human; settings: topical, 24 hours
From the text: (§4) Subcutaneous fat from full thickness skin, obtained from surgical waste material from breast reduction procedures, was removed with a scalpel. Three healthy Caucasian female donors were used for this study. The female donors differed from those of the skin-treatment study outlined previously 8 mm punch biopsies were taken from the skin (and these biopsies are now referred to as skin explants). Skin explants were put on Milipore cell culture inserts (12 mm diameter). Inserts containing skin explants were put in 6-well plates (one insert/well) and 1 mL of supplemented keratinocyte medium (ex Cascade Biologics) was added to each well. A tretinoin-containing cream (Aberela® ex. Janssen): 0.05% tretinoin in the cream, was applied topically to each explant (5 μL/cm^2) using a positive displacement pipette. A placebo cream without tretinoin was used as a control. The skin explants were incubated with tretinoin for 24 hours at 37° C. in 5% CO2-humidified air.
(§5) RNA concentration was measured with ND-1000 spectrophotometer (ex. NanoDrop Technologies) and RNA quality was evaluated using the Agilent 2100 bioanalyzer system (ex. Agilent Technologies). 250 nanograms of total RNA from each skin or skin explant sample was used to prepare biotinylated fragmented cRNA according to the GeneChip® 3′IVT Express Kit Manual (PN702646 Rev 1, ex. Affymetrix Inc.). Affymetrix GeneChip® expression arrays (Human Genome U133 Plus 2.0) were hybridized for 16 hours in a 45° C. incubator, rotated at 60 rpm. According to the GeneChip Expression Wash, Stain and Scan Manual (PN 702731 Rev 2, ex. Affymetrix Inc.) the arrays were washed and stained using the Fluidics Station 450 and scanned using the GeneChip® Scanner 3000 7G.
(§6) Analysis of the gene expression data was carried out in the statistical computing language R (http://www.r-project.org) using packages available from the Bioconductor project (www.bioconductor.org). The raw data was normalized using the robust multi-array average (RMA) method. In order to search for differentially expressed genes between the X samples and the Y samples group an empirical Bayes moderated t-test was then applied using the ‘limma’ package.
(§7) Skin explants were obtained as detailed in Example 3.1.

[3] = tested on: connective tissue growth factor (CTGF); experiment: Affymetrix gene array on skin explants, CTGF; type: cell-based, human; settings: topical, 24 hours
From the text: as §4, §5, §6
Skin explants were obtained as detailed in Example 3.1. Compounds naringenin and N-acetyl aspartic acid were topically applied on skin explants for 24 hours and investigated with Affymetrix gene array.

[4] = tested on: steroid 5 alpha-reductase 3 (SRD5A3); experiment: Affymetrix gene array on skin explants, SRD5A3; type: cell-based, human; settings: topical, 24 hours
From the text: as §4, §5, §6, §7

[5] = tested on: Plasminogen activator (PLAT); experiment: Plasminogen activator (PLAT) activation
[6] = tested on: tachykinin, precursor 1 (TAC1); experiment: Affymetrix gene array on skin explants, TAC1; type: cell-based, human; settings: topical, 24 hours
From the text: as §4, §5, §6, §7

[7] = tested on: prostaglandin-endoperoxide synthase 1 (PTGS1); experiment: Affymetrix gene array on skin explants, PTGS1; type: cell-based, human; settings: topical, 24 hours
From the text: as §4, §5, §6, §7

VEGF = experiment: Inflammation induced VEGF synthesis in cultured dermal fibroblasts; type: cell-based, human; settings: inflammatory inducer PMA (FIG. 10)
Experimental: as §3
Fluorokine MultiAnalyte Profiling (xMAP) using the BioPlex (ex. Biorad) dual laser flow-based sorting and detection analyzers manufactured by Luminex corporation (Luminex, Austin, Tex.) was employed to measure levels of MMP in conditioned media samples of stimulated dermal fibroblasts. The technology incorporated polystyrene microspheres dyed internally with differing ratios of two spectrally distinct fluorophores to create a family of different spectrally addressed bead sets. The bead utilized in this study was conjugated with a biotinylated capture antibody specific for a unique MMPs, The assay was performed without antecedent serum depletion. Results were compared with medium from cells treated with vehicle only (DMSO). The assays utilized a 96-well microplate format and were processed according to the manufacturer's protocol, including generation of a standard curve for each target prepared in background assay diluents. Values that fell within the linear range of the calibration assay were accepted. Samples were analyzed using the Bio-Plex suspension array system and Bio-Plex Manager software 4.0 (Bio-Rad Laboratories, Hercules, Calif.). Quantities were determined by comparison to standard curves obtained for the different MMP.
Cell culture and cytokine analysis was carried out on human dermal fibroblasts as described in Example 3.1. The methodology was adapted in order analyze VEGF production.

[8] = tested on: arachidonate 5-lipoxygenase (ALOX5); experiment: Affymetrix gene array on skin explants, ALOX5; type: cell-based, human; settings: topical, 24 hours
From the text: as §4, §5, §6, §7

[9] = tested on: heparin-binding EGF-like growth factor (HBEGF); experiment: Affymetrix gene array on skin explants, HBEGF; type: cell-based, human; settings: topical, 24 hours, cut-off |log 2−ratio|>1
From the text: as §4, §5
Analysis of the gene expression data was carried out in the statistical computing language R (http://www.r-project.org) using packages available from the Bioconductor project (www.bioconductor.org). The raw data was normalized using the robust multi-array average (RMA) method. […]

CC/C=C\C/C=C\C/C=C\C/C=C\C/C=C\C/C=C\CCC(=O)OCC [Docosahexaenoic acid (ethyl ester)]
keratin-6 production (keratin 6): stimulated keratin-6 production | production of Keratin 1/10 (Keratin 1/10): stimulate production of Keratin 1/10 | production of pro-collagen type 1 (pro-collagen type 1): convincing trend towards increasing | fibronectin production / release (fibronectin): higher fibronectin production than retinoic acid | synthesis of kallikrein 8 (Kallikrein 8): significant increase in the synthesis of kallikrein 8

O=c1cc(-c2ccc(O)cc2)oc2c([C@@H]3O[C@H](CO)[C@@H](O)[C@H](O)[C@H]3O)c(O)cc(O)c12 [Vitexin]
Log p [1]: 1.5

CC1=C(/C=C/C(C)=C/C=C/C(C)=C/C(=O)O)C(C)(C)CCC1 [All-trans retinoic acid, all-trans retinoic acid, reference compound]
HSD17B2 gene expression [2]: −0.48 log 2−ratio | CTGF gene expression ([3]; cut-off |log 2−ratio|>1): No | CTGF gene expression ([3]; cut-off |log 2−ratio|>1, listed as all-trans retinoic acid): did not have any effect | SRD5A3 gene expression [4]: 0.29 log 2−ratio | Plasminogen activator (PLAT) activation [5]: activated | TAC1 gene expression [6]: −4.01 log 2−ratio | PTGS1 gene expression [7]: −1.03 log 2−ratio | inflammatory induced VEGF synthesis (VEGF): additional increase in VEGF | ALOX5 gene expression [8]: −0.69 log 2−ratio | synthesis of kallikrein 8 (Kallikrein 8): significant stimulation of kallikrein 8 | HBEGF gene expression [9]: 1.21 log 2−ratio

O=c1c(O)c(-c2ccc(O)c(O)c2)oc2cc(O)cc(O)c12 [Quercetin]
production of Keratin 1/10 (Keratin 1/10): stimulate production of Keratin 1/10 | production of pro-collagen type 1 (pro-collagen type 1): promote pro-collagen 1 expression | synthesis of kallikrein 8 (Kallikrein 8): induce production of Kallikrein 8

β-aescin [Beta Aescin]
production of Keratin 1/10 (Keratin 1/10): stimulate production of Keratin 1/10 | production of pro-collagen type 1 (pro-collagen type 1): convincing trend towards increasing | fibronectin production / release (fibronectin): higher fibronectin production than retinoic acid | inflammatory induced VEGF synthesis (VEGF): decreased VEGF expression, although insignificant | synthesis of kallikrein 8 (Kallikrein 8): induce production of Kallikrein 8

CCCCC/C=C\C/C=C\C/C=C\C/C=C\CCCC(=O)O [Arachdonic acid, Arachidonic acid]
production of Keratin 1/10 (Keratin 1/10): stimulate production of Keratin 1/10 | production of pro-collagen type 1 (pro-collagen type 1): promote pro-collagen 1 expression | fibronectin production / release (fibronectin): higher fibronectin production than retinoic acid | synthesis of kallikrein 8 (Kallikrein 8): significant increase in the synthesis of kallikrein 8 | Log p [1]: 6.98

CC1=C(/C=C/C(C)=C/C=C/C(C)=C/CO)C(C)(C)CCC1 [retinol, All-trans retinol, reference compound]
inflammatory induced VEGF synthesis (VEGF): small but insignificant decrease in VEGF | synthesis of kallikrein 8 (Kallikrein 8): significant stimulation of kallikrein 8

From patent publication US20140301961A1, “COMPOUNDS WITH ANTI-AGING ACTIVITIES” (priority 2011, published 2014)
